Experimental data reported in US20260132140A1, “IMIDAZOLYL-AMINO-PYRAZINE-CARBONITRILS AS CHK-1 INHIBITORS” (BenevolentAI Bio Limited, priority 2022, published 2026).

Assays:
human Chk1 kinase = target: T1, human Chk1 kinase (Homo sapiens, UniProt O14757); experiment: biochemical
T1 sequence (O14757 1-476): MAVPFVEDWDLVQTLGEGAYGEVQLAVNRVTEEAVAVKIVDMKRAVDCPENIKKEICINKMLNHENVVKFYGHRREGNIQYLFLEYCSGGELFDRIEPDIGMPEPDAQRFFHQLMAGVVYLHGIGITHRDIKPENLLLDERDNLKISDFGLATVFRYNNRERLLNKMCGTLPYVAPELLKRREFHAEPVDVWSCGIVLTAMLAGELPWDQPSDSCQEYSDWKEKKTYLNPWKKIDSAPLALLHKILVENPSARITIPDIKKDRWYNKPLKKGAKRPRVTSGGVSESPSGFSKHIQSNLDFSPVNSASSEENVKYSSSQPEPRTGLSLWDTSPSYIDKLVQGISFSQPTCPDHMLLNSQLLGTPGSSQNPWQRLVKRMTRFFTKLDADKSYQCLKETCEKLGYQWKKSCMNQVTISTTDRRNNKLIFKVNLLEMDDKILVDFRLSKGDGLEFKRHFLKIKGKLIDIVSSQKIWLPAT

human Chk2 kinase = human Chk2 kinase (Homo sapiens, UniProt O96017); experiment: biochemical
Sequence of human Chk2 kinase (O96017 whole entry): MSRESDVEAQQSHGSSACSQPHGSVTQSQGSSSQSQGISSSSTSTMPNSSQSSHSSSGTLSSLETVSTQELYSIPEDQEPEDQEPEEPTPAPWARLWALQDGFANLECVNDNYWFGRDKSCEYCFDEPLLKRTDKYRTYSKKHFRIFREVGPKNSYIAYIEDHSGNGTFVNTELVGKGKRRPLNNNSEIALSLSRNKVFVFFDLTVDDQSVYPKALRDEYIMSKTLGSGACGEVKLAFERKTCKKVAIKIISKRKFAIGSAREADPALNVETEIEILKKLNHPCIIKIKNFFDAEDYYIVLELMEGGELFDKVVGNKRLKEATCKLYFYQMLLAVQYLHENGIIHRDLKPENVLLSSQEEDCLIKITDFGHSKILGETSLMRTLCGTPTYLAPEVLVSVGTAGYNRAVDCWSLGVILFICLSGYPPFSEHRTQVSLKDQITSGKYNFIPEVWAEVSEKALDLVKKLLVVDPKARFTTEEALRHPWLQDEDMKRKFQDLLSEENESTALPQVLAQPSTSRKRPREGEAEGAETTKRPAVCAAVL

CN1C[C@@H]2CC[C@H]1CN2c1ccc(-n2cnc(Nc3cnc(C#N)cn3)c2)cc1 [Example 42, 5-((1-(4-((1S,4S)-5-Methyl-2,5-diazabicyclo[2.2.2]octan-2-yl)phenyl)-1H-imidazol-4-yl)amino)pyrazine-2-carbonitrile] gave an IC50 (human Chk1 kinase) of under 10 nM and an IC50 (human Chk2 kinase) of 10000 to 100000 nM.
For CN1CCC(N(C)c2cccc(-n3cnc(Nc4cnc(C#N)cn4)c3)c2)CC1 [Example 43, 5-((1-(3-(Methyl(1-methylpiperidin-4-yl)amino)phenyl)-1H-imidazol-4-yl)amino)pyrazine-2-carbonitrile], the IC50 (human Chk1 kinase) was 31.6 to 100 nM and the IC50 (human Chk2 kinase) was 10000 to 100000 nM.
COc1cc(N2C[C@H]3C[C@@H]2CN3C)ccc1-n1cnc(Nc2cnc(C#N)cn2)c1 [Example 44, 5-((1-(2-Methoxy-4-((1R,4R)-5-methyl-2,5-diazabicyclo[2.2.1]heptan-2-yl)phenyl)-1H-imidazol-4-yl)amino)pyrazine-2-carbonitrile] gave an IC50 (human Chk1 kinase) of 10 to 31.6 nM and an IC50 (human Chk2 kinase) of 10000 to 100000 nM.
CC(C)(C)N1CC(Oc2ccc(-n3cnc(Nc4cnc(C#N)cn4)c3)cc2)C1 [Example 45, 5-((1-(4-((1-(tert-Butyl)azetidin-3-yl)oxy)phenyl)-1H-imidazol-4-yl)amino)pyrazine-2-carbonitrile] was tested, and the IC50 (human Chk1 kinase) was 10 to 31.6 nM and the IC50 (human Chk2 kinase) was 10000 to 100000 nM.
In the case of COc1cc(N2CC3(CN(C)C3)C2)ccc1-n1cnc(Nc2cnc(C#N)cn2)c1 [Example 46, 5-((1-(2-Methoxy-4-(6-methyl-2,6-diazaspiro[3.3]heptan-2-yl)phenyl)-1H-imidazol-4-yl)amino)pyrazine-2-carbonitrile], the IC50 (human Chk1 kinase) is reported as 10 to 31.6 nM and the IC50 (human Chk2 kinase) is reported as 10000 to 100000 nM.
CCCN1CC(Oc2cccc(-n3cnc(Nc4cnc(C#N)cn4)c3)c2)C1 [Example 48, 5-((1-(3-((1-Propylazetidin-3-yl)oxy)phenyl)-1H-imidazol-4-yl)amino)pyrazine-2-carbonitrile] showed an IC50 (human Chk1 kinase) of 31.6 to 100 nM and an IC50 (human Chk2 kinase) of over 100000 nM.
In the case of COc1cc(N2CC[C@@H](N3CCCC3)C2)ccc1-n1cnc(Nc2cnc(C#N)cn2)c1 [Example 51, (R)-5-((1-(4-([1,3′-Bipyrrolidin]-1′-yl)-2-methoxyphenyl)-1H-imidazol-4-yl)amino)pyrazine-2-carbonitrile], the IC50 (human Chk1 kinase) is reported as under 10 nM and the IC50 (human Chk2 kinase) is reported as 1000 to 10000 nM.
COc1cc(OC2CN(C(C)(C)C)C2)ccc1-n1cnc(Nc2cnc(C#N)cn2)c1 [Example 53, 5-((1-(4-((1-(tert-Butyl)azetidin-3-yl)oxy)-2-methoxyphenyl)-1H-imidazol-4-yl)amino)pyrazine-2-carbonitrile] was tested, and the IC50 (human Chk1 kinase) was 10 to 31.6 nM and the IC50 (human Chk2 kinase) was 10000 to 100000 nM.
Work on Cc1cc(CN2CC[C@@H](F)C2)cc(C(F)(F)F)c1-n1cnc(Nc2cnc(C#N)cn2)c1 [Example 54, (R)-5-((1-(4-((3-Fluoropyrrolidin-1-yl)methyl)-2-methyl-6-(trifluoromethyl)phenyl)-1H-imidazol-4-yl)amino)pyrazine-2-carbonitrile] yielded an IC50 (human Chk1 kinase) of 100 to 316 nM and an IC50 (human Chk2 kinase) of over 100000 nM.
COc1cc(N2C[C@H]3CCN(C)[C@H]3C2)ccc1-n1cnc(Nc2cnc(C#N)cn2)c1 [Example 55, 5-((1-(2-Methoxy-4-((3aR,6aR)-1-methylhexahydropyrrolo[3,4-b]pyrrol-5(1H)-yl)phenyl)-1H-imidazol-4-yl)amino)pyrazine-2-carbonitrile] gave an IC50 (human Chk1 kinase) of 10 to 31.6 nM and an IC50 (human Chk2 kinase) of 10000 to 100000 nM.
Compound CN1C[C@H](F)[C@H](Oc2cccc(-n3cnc(Nc4cnc(C#N)cn4)c3)c2)C1 [Example 56, 5-((1-(3-(((3R,4S)-4-fluoro-1-methylpyrrolidin-3-yl)oxy)phenyl)-1H-imidazol-4-yl)amino)pyrazine-2-carbonitrile] has an IC50 (human Chk1 kinase) of 100 to 316 nM and an IC50 (human Chk2 kinase) of 10000 to 100000 nM.
Cc1cc(CN2CC[C@@H](F)C2)cc(C)c1-n1cnc(Nc2cnc(C#N)cn2)c1 [Example 57, (R)-5-((1-(4-((3-Fluoropyrrolidin-1-yl)methyl)-2,6-dimethylphenyl)-1H-imidazol-4-yl)amino)pyrazine-2-carbonitrile] gave an IC50 (human Chk1 kinase) of 316 to 1000 nM and an IC50 (human Chk2 kinase) of over 100000 nM.
Work on Cc1ccc(-n2cnc(Nc3cnc(C#N)cn3)c2)cc1N1CC[C@@H](N(C)C)C1 [Example 58, (R)-5-((1-(3-(3-(Dimethylamino)pyrrolidin-1-yl)-4-methylphenyl)-1H-imidazol-4-yl)amino)pyrazine-2-carbonitrile] yielded an IC50 (human Chk1 kinase) of 31.6 to 100 nM and an IC50 (human Chk2 kinase) of 10000 to 100000 nM.
CN1CCC2(CC1)CCN(c1ccc(-n3cnc(Nc4cnc(C#N)cn4)c3)cc1)C2 [Example 60, 5-((1-(4-(8-Methyl-2,8-diazaspiro[4.5]decan-2-yl)phenyl)-1H-imidazol-4-yl)amino)pyrazine-2-carbonitrile] gave an IC50 (human Chk1 kinase) of 31.6 to 100 nM and an IC50 (human Chk2 kinase) of 10000 to 100000 nM.
Compound CN(C)[C@H]1CN(c2ccc(-n3cnc(Nc4cnc(C#N)cn4)c3)cc2)C[C@H]1F [Example 62, 5-((1-(4-((3S,4R)-3-(Dimethylamino)-4-fluoropyrrolidin-1-yl)phenyl)-1H-imidazol-4-yl)amino)pyrazine-2-carbonitrile] has an IC50 (human Chk1 kinase) of 10 to 31.6 nM and an IC50 (human Chk2 kinase) of 1000 to 10000 nM.
Compound CN(C)[C@H]1CN(c2ccc(-n3cnc(Nc4cnc(C#N)cn4)c3)cc2)C[C@@H]1F [Example 63, 5-((1-(4-((3S,4S)-3-(Dimethylamino)-4-fluoropyrrolidin-1-yl)phenyl)-1H-imidazol-4-yl)amino)pyrazine-2-carbonitrile] has an IC50 (human Chk1 kinase) of under 10 nM and an IC50 (human Chk2 kinase) of 1000 to 10000 nM.
CN(C)C[C@@H]1CCCN1c1ccc(-n2cnc(Nc3cnc(C#N)cn3)c2)cc1 [Example 66, (S)-5-((1-(4-(2-((Dimethylamino)methyl)pyrrolidin-1-yl)phenyl)-1H-imidazol-4-yl)amino)pyrazine-2-carbonitrile] showed an IC50 (human Chk1 kinase) of 31.6 to 100 nM and an IC50 (human Chk2 kinase) of 10000 to 100000 nM.
CN(C)[C@@H]1CCN(c2ccc(-n3cnc(Nc4cnc(C#N)cn4)c3)cc2C(F)(F)F)C1 [Example 70, (R)-5-((1-(4-(3-(Dimethylamino)pyrrolidin-1-yl)-3-(trifluoromethyl)phenyl)-1H-imidazol-4-yl)amino)pyrazine-2-carbonitrile] gave an IC50 (human Chk1 kinase) of 31.6 to 100 nM and an IC50 (human Chk2 kinase) of 1000 to 10000 nM.
N#Cc1cnc(Nc2cn(-c3ccc(N4CC[C@@H](N5CCOCC5)C4)cc3)cn2)cn1 [Example 72, (R)-5-((1-(4-(3-Morpholinopyrrolidin-1-yl)phenyl)-1H-imidazol-4-yl)amino)pyrazine-2-carbonitrile] gave an IC50 (human Chk1 kinase) of 10 to 31.6 nM and an IC50 (human Chk2 kinase) of 10000 to 100000 nM.
Work on CN(C)[C@@H]1CCN(c2ccc(-n3cnc(Nc4cnc(C#N)cn4)c3)nc2C(F)(F)F)C1 [Example 77, (R)-5-((1-(5-(3-(Dimethylamino)pyrrolidin-1-yl)-6-(trifluoromethyl)pyridin-2-yl)-1H-imidazol-4-yl)amino)pyrazine-2-carbonitrile] yielded an IC50 (human Chk1 kinase) of 10 to 31.6 nM and an IC50 (human Chk2 kinase) of 10000 to 100000 nM.
Compound CN1C[C@@H]2CN(c3ccc(-n4cnc(Nc5cnc(C#N)cn5)c4)c(F)c3)[C@@H]2C1 [Example 80, 5-((1-(2-Fluoro-4-((1R,5S)-3-methyl-3,6-diazabicyclo[3.2.0]heptan-6-yl)phenyl)-1H-imidazol-4-yl)amino)pyrazine-2-carbonitrile] has an IC50 (human Chk1 kinase) of 31.6 to 100 nM and an IC50 (human Chk2 kinase) of 10000 to 100000 nM.
Work on CN1C[C@H]2CN(c3ccc(-n4cnc(Nc5cnc(C#N)cn5)c4)c(F)c3)[C@H]2C1 [Example 81, 5-((1-(2-Fluoro-4-((1S,5R)-3-methyl-3,6-diazabicyclo[3.2.0]heptan-6-yl)phenyl)-1H-imidazol-4-yl)amino)pyrazine-2-carbonitrile] yielded an IC50 (human Chk1 kinase) of 31.6 to 100 nM and an IC50 (human Chk2 kinase) of 1000 to 10000 nM.
CN(C)[C@@H]1CCN(c2cnc(-n3cnc(Nc4cnc(C#N)cn4)c3)nc2)C1 [Example 82, (R)-5-((1-(5-(3-(Dimethylamino)pyrrolidin-1-yl)pyrimidin-2-yl)-1H-imidazol-4-yl)amino)pyrazine-2-carbonitrile] showed an IC50 (human Chk1 kinase) of 31.6 to 100 nM and an IC50 (human Chk2 kinase) of 1000 to 10000 nM.
CN1CC[C@@H]2CN(c3ccc(-n4cnc(Nc5cnc(C#N)cn5)c4)cc3)C[C@@H]21 [Example 87, 5-((1-(4-((3aR,6aR)-1-Methylhexahydropyrrolo[3,4-b]pyrrol-5(1H)-yl)phenyl)-1H-imidazol-4-yl)amino)pyrazine-2-carbonitrile] showed an IC50 (human Chk1 kinase) of 10 to 31.6 nM and an IC50 (human Chk2 kinase) of 10000 to 100000 nM.
Compound CCN[C@H]1CN(c2ccc(-n3cnc(Nc4cnc(C#N)cn4)c3)cc2)C[C@H]1F [Example 88, 5-((1-(4-((3S,4R)-3-(Ethylamino)-4-fluoropyrrolidin-1-yl)phenyl)-1H-imidazol-4-yl)amino)pyrazine-2-carbonitrile] has an IC50 (human Chk1 kinase) of 10 to 31.6 nM and an IC50 (human Chk2 kinase) of 1000 to 10000 nM.
CN1CC[C@@H]2[C@H]1CCN2c1ccc(-n2cnc(Nc3cnc(C#N)cn3)c2)cc1 [Example 91, 5-((1-(4-((3aR,6aR)-4-Methylhexahydropyrrolo[3,2-b]pyrrol-1(2H)-yl)phenyl)-1H-imidazol-4-yl)amino)pyrazine-2-carbonitrile] gave an IC50 (human Chk1 kinase) of 10 to 31.6 nM and an IC50 (human Chk2 kinase) of 10000 to 100000 nM.
In the case of N#Cc1cnc(Nc2cn(-c3ccc(N4CC[C@@H](NCCC(F)(F)F)C4)cn3)cn2)cn1 [Example 93, (R)-5-((1-(5-(3-((3,3,3-Trifluoropropyl)amino)pyrrolidin-1-yl)pyridin-2-yl)-1H-imidazol-4-yl)amino)pyrazine-2-carbonitrile], the IC50 (human Chk1 kinase) is reported as 10 to 31.6 nM and the IC50 (human Chk2 kinase) is reported as over 100000 nM.
Work on CN1CC[C@@H](N(C)c2ccc(-n3cnc(Nc4cnc(C#N)cn4)c3)cc2)C1 [Example 94, (R)-5-((1-(4-(Methyl(1-methylpyrrolidin-3-yl)amino)phenyl)-1H-imidazol-4-yl)amino)pyrazine-2-carbonitrile] yielded an IC50 (human Chk1 kinase) of 31.6 to 100 nM and an IC50 (human Chk2 kinase) of 10000 to 100000 nM.
In the case of CN1CC[C@H](N(C)c2ccc(-n3cnc(Nc4cnc(C#N)cn4)c3)cc2)C1 [Example 95, (S)-5-((1-(4-(Methyl(1-methylpyrrolidin-3-yl)amino)phenyl)-1H-imidazol-4-yl)amino)pyrazine-2-carbonitrile], the IC50 (human Chk1 kinase) is reported as 31.6 to 100 nM and the IC50 (human Chk2 kinase) is reported as 10000 to 100000 nM.
